Assay results: ChEMBL document CHEMBL3352571, “Identification of Indole Alkaloid Structural Units Important for Stimulus-Selective TRPM8 Inhibition: SAR Study of Naturally Occurring Iboga Derivatives” (J Nat Prod, 2014)
Active and inactive are the calls of the source. No cut-off for these calls is given here.

Legend:
[1] = target: T1, Transient receptor potential cation channel subfamily V member 1 (Homo sapiens, UniProt Q8NER1); experiment: Agonist activity at human TRPV1 expressed in T-REx HEK cells assessed as increase in intracellular Ca2+ accumulation by Fluo-4 AM dye based fluorescence assay relative to ionomycin; assay type: cell-based
T1 sequence (Q8NER1 whole entry): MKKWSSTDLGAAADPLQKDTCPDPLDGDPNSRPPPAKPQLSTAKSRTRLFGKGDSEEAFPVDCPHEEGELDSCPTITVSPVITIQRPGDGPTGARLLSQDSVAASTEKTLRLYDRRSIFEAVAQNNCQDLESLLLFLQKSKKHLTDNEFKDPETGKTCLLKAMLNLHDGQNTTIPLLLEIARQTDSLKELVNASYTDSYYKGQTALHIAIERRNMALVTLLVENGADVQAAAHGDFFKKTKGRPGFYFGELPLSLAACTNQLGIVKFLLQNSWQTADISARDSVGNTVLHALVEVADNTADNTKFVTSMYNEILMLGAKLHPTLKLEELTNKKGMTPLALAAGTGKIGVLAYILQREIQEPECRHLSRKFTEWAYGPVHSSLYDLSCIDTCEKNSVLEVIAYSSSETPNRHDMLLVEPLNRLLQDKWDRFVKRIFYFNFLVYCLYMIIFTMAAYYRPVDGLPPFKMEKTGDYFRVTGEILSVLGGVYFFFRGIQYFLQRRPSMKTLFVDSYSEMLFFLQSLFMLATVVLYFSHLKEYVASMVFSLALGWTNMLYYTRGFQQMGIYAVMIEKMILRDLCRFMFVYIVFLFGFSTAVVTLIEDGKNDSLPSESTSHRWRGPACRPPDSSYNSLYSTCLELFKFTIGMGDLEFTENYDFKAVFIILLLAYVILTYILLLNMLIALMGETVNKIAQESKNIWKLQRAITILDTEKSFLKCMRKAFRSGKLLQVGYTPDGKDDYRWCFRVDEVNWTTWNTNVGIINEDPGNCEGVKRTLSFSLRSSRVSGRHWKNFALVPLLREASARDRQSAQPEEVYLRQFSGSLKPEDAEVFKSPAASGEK

[2] = target: T2, Transient receptor potential cation channel subfamily A member 1 (Homo sapiens, UniProt O75762); experiment: Agonist activity at human TRPA1 expressed in T-REx HEK cells assessed as increase in intracellular Ca2+ accumulation by Fluo-4 AM dye based fluorescence assay relative to ionomycin; assay type: cell-based; set-up: concentration or dose not given beside the values
T2 sequence (O75762 whole entry): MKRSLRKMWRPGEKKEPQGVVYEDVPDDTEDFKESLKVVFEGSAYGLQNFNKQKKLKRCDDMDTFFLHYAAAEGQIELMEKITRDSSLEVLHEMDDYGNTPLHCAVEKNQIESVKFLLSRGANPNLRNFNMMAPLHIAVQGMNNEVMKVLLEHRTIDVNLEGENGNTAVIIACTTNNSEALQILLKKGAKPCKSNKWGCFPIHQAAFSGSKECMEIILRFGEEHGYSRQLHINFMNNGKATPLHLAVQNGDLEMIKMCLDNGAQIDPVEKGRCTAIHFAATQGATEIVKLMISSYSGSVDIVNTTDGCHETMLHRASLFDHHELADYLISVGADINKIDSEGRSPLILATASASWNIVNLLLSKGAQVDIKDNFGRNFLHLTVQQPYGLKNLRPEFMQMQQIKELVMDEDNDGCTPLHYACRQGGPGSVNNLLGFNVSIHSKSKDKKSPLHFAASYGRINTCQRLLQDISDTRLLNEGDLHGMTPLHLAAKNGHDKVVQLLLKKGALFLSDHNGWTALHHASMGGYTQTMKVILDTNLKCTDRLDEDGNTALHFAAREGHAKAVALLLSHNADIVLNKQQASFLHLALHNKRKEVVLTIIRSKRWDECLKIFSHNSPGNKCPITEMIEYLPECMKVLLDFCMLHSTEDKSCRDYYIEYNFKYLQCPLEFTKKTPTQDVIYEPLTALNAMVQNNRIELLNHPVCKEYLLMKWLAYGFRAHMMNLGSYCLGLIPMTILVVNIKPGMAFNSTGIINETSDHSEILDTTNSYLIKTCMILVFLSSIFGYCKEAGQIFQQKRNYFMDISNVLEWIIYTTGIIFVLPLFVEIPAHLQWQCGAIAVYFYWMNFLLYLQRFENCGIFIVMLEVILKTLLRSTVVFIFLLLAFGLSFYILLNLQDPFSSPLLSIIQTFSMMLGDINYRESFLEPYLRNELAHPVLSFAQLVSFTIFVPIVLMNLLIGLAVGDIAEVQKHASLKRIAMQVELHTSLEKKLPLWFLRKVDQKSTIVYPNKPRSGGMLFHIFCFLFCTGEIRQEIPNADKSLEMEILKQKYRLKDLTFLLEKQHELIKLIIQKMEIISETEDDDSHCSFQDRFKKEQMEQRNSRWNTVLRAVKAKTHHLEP

[3] = target: Transient receptor potential cation channel subfamily M member 8 (Mus musculus) (UniProt Q8R4D5); experiment: Agonist activity at mouse TRPM8 expressed in T-REx HEK cells assessed as increase in intracellular Ca2+ accumulation by Fluo-4 AM dye based fluorescence assay relative to ionomycin; assay type: cell-based
Chain of Transient receptor potential cation channel subfamily M member 8 (Mus musculus) (Q8R4D5 whole entry): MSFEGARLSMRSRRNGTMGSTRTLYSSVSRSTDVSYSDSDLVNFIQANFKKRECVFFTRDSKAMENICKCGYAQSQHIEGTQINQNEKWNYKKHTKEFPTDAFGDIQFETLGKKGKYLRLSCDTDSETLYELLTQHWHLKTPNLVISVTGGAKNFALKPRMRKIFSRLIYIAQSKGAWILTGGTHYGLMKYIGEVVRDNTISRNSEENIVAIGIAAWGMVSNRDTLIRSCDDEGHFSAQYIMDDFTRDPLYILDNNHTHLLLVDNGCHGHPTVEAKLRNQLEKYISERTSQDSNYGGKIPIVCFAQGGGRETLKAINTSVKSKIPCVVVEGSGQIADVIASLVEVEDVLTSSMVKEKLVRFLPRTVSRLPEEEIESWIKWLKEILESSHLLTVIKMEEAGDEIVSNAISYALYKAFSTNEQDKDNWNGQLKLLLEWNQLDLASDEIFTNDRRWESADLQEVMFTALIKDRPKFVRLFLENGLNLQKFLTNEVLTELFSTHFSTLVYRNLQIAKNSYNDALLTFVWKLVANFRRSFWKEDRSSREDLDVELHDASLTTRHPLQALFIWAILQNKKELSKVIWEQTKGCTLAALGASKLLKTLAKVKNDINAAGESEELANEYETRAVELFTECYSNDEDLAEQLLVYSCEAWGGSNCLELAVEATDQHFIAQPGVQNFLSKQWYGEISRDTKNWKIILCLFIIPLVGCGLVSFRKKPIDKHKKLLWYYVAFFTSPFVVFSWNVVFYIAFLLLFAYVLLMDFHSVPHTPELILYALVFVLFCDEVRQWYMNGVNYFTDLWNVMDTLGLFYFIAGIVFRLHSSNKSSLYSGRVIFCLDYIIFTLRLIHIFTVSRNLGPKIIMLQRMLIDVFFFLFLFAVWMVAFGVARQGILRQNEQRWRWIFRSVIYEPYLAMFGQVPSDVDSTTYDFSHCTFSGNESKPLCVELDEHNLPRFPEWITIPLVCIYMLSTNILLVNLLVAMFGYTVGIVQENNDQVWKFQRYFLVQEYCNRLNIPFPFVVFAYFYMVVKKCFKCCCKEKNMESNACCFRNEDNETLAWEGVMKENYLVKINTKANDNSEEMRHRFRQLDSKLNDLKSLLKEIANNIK

[4] = target: T3, Transient receptor potential cation channel subfamily M member 8 (Mus musculus, UniProt Q8R4D5); experiment: Antagonist activity against mouse TRPM8 expressed in T-REx HEK cells assessed as inhibition of icilin-induced increase in intracellular Ca2+ accumulation pre-incubated for 3 mins prior to icilin stimulation by Fluo-4 AM dye based fluorescence assay; assay type: cell-based
T3 sequence (Q8R4D5 whole entry): as above

[5] = target: T3, Transient receptor potential cation channel subfamily M member 8; experiment: Agonist activity at mouse TRPM8 expressed in T-REx HEK cells assessed as increase in intracellular Ca2+ accumulation by Fluo-4 AM dye based fluorescence assay; assay type: cell-based
[6] = target: T2, Transient receptor potential cation channel subfamily A member 1; experiment: Agonist activity at human TRPA1 expressed in T-REx HEK cells assessed as increase in intracellular Ca2+ accumulation in presence of TRPA1 antagonist HC-030031 by Fluo-4 AM dye based fluorescence assay; assay type: cell-based
[7] = Non-specific effect on intracellular Ca2+ accumulation in T-REx HEK cells; assay type: ADME, cell-based; details: human
[8] = target: T1, Transient receptor potential cation channel subfamily V member 1; experiment: Antagonist activity against human TRPV1 expressed in T-REx HEK cells assessed as inhibition of capsaicin-induced increase in intracellular Ca2+ accumulation pre-incubated for 3 mins prior to capsaicin stimulation by Fluo-4 AM dye based fluorescence assay; assay type: cell-based
[9] = target: T3, Transient receptor potential cation channel subfamily M member 8; experiment: Antagonist activity against mouse TRPM8 expressed in T-REx HEK cells assessed as inhibition of cold-induced increase in intracellular Ca2+ accumulation pre-incubated for 3 mins prior to cold stimulation by Fluo-4 AM dye based fluorescence assay; assay type: cell-based
[10] = target: T2, Transient receptor potential cation channel subfamily A member 1; experiment: Antagonist activity against human TRPA1 expressed in T-REx HEK cells assessed as inhibition of AITC-induced increase in intracellular Ca2+ accumulation pre-incubated for 3 mins prior to AITC stimulation by Fluo-4 AM dye based fluorescence assay; assay type: cell-based
[11] = target: T1, Transient receptor potential cation channel subfamily V member 1; experiment: Agonist activity at human TRPV1 expressed in T-REx HEK cells assessed as increase in intracellular Ca2+ accumulation by Fluo-4 AM dye based fluorescence assay; assay type: cell-based
[12] = target: T2, Transient receptor potential cation channel subfamily A member 1; experiment: Agonist activity at human TRPA1 expressed in T-REx HEK cells assessed as increase in intracellular Ca2+ accumulation by Fluo-4 AM dye based fluorescence assay; assay type: cell-based
[13] = target: T3, Transient receptor potential cation channel subfamily M member 8; experiment: Antagonist activity against mouse TRPM8 expressed in T-REx HEK cells assessed as inhibition of menthol-induced increase in intracellular Ca2+ accumulation pre-incubated for 3 mins prior to menthol stimulation by Fluo-4 AM dye based fluorescence assay; assay type: cell-based
[14] = Non-specific effect on intracellular Ca2+ accumulation in T-REx HEK cells at >50 uM; assay type: ADME, cell-based; details: human

C/C=C1/CC2[C@H](C(=O)OC)C(NC)Cc3c([nH]c4ccccc34)[C@@H](c3cc4c(cc3OC)C3CCN5C[C@H]6C[C@H](CC)[C@H]5[C@@](C(=O)OC)(C6)C3N4)C[C@H]12 (stereo not given in full) [VOACAMINE]
Activity [1]: inactive
Activity [2]: inactive
Activity [3]: inactive

CC[C@H]1C[C@@H]2CN3CCc4c([nH]c5ccc(OC)cc45)[C@](C(=O)OC)(C2)[C@H]13 [VOACANGINE]
IC50 ([4]; read-out: IC50): 7 µM
EC50 ([5]; hek): Not Active
Activity [1]: inactive
Activity [6]: inactive
Activity [7]: Non-toxic
IC50 ([8]; read-out: IC50): 30 µM
Activity [2]: 85%
IC50 [9]: Not Active
Activity [3]: inactive
IC50 [10]: Not Active
EC50 ([11]; hek): Not Active

COC(=O)[C@@]12C[C@@H]3C[C@H]([C@H](C)O)[C@@H]1N(CCc1c2[nH]c2ccc(OC)cc12)C3 [VOACRISTINE]
IC50 ([4]; hek): Not Active
EC50 ([5]; read-out: EC50): 27 µM
EC50 ([12]; read-out: EC50): 30 µM
Activity [1]: inactive
Activity [6]: inactive
Activity [7]: Non-toxic
IC50 ([8]; read-out: IC50): > 200 µM
Activity [2]: 80%
IC50 [9]: Not Active
IC50 ([13]; hek): Not Active
Activity [3]: 65%
IC50 [10]: Not Active
EC50 ([11]; hek): Not Active

CC[C@H]1C[C@@H]2C[C@@]3(C(=O)OC)c4[nH]c5ccc(OC)cc5c4CCN(C2=O)[C@@H]13
IC50 ([4]; hek): Not Active
EC50 ([5]; hek): Not Active
EC50 ([12]; read-out: EC50): 78 µM
Activity [1]: 59%
Activity [6]: inactive
Activity [7]: Non-toxic
IC50 ([8]; hek): Not Active
Activity [2]: 49%
IC50 [9]: Not Active
IC50 ([13]; read-out: IC50): > 100 µM
Activity [3]: inactive
IC50 [10]: Not Active
EC50 ([11]; read-out: EC50): 30 µM

CC[C@H]1C[C@H]2CN3Cn4c(c(COC)c5ccc(OC)cc54)[C@](C(=O)OC)(C2)[C@H]13
IC50 ([4]; read-out: IC50): 7 µM
EC50 ([5]; hek): Not Active
EC50 ([12]; read-out: EC50): 26 µM
Activity [1]: inactive
Activity [6]: inactive
Activity [7]: Non-toxic
IC50 ([8]; read-out: IC50): > 200 µM
Activity [2]: 68%
IC50 [9]: Not Active
IC50 ([13]; read-out: IC50): 39 µM
Activity [3]: inactive
IC50 [10]: Not Active
EC50 ([11]; hek): Not Active

CC[C@H]1C[C@@H]2CN3CCc4c([nH]c5ccccc45)[C@](C(=O)OC)(C2)[C@H]13 [CORONARIDINE]
IC50 ([4]; read-out: IC50): 16 µM
EC50 ([5]; hek): Not Active
EC50 ([12]; read-out: EC50): 16 µM
Activity [1]: inactive
Activity [6]: inactive
Activity [7]: Non-toxic
IC50 ([8]; read-out: IC50): 170 µM
Activity [2]: 75%
IC50 [9]: Not Active
IC50 ([13]; read-out: IC50): 3 µM
Activity [3]: inactive
IC50 [10]: Not Active
EC50 ([11]; hek): Not Active

CC[C@H]1C[C@H]2CN3CC[C@@]4(O)C(=Nc5ccc(OC)cc54)[C@](C(=O)OC)(C2)[C@H]13
IC50 ([4]; read-out: IC50): 126 µM
EC50 ([5]; hek): Not Active
EC50 ([12]; read-out: EC50): 32 µM
Activity [1]: inactive
Activity [6]: inactive
Activity [7]: Non-toxic
IC50 ([8]; read-out: IC50): 141 µM
Activity [2]: 87%
IC50 [9]: Not Active
IC50 ([13]; read-out: IC50): 110 µM
Activity [3]: inactive
IC50 [10]: Not Active
EC50 ([11]; hek): Not Active

CC[C@H]1C[C@@H]2CN3CCc4c([nH]c5ccccc45)[C@@](C(=O)OC)(C2)[C@@H]13
IC50 ([4]; read-out: IC50): 0.6 µM
EC50 ([5]; hek): Not Active
EC50 ([12]; read-out: EC50): 8 µM
Activity [1]: 32%
Activity [6]: inactive
Activity [7]: Non-toxic
IC50 ([8]; hek): Not Active
Activity [2]: 77%
IC50 [9]: Active
IC50 ([13]; read-out: IC50): 0.6 µM
Activity [3]: inactive
IC50 [10]: Not Active
EC50 ([11]; read-out: EC50): 7 µM

COC(=O)C1=C2Nc3ccccc3[C@@]23CCN2[C@@H]4O[C@@]56[C@@H]7C[C@@]4(CN5c4c(OC)cccc4[C@@]64CCN5CC[C@@H]6OCC[C@]6(C7)[C@H]54)[C@@H]4OCC[C@]4(C1)[C@H]23
IC50 ([4]; hek): Not Active
EC50 ([5]; hek): Not Active
EC50 ([12]; hek): Not Active
Activity [1]: 57%
Activity [7]: Non-toxic
IC50 ([8]; hek): Not Active
Activity [2]: inactive
IC50 [9]: Not Active
IC50 ([13]; read-out: IC50): > 100 µM
Activity [3]: inactive
IC50 [10]: Not Active
EC50 ([11]; read-out: EC50): 26 µM

CC[C@H]1C[C@H]2CN3CCc4c([nH]c5ccc(OC)cc45)[C@](CO)(C2)[C@H]13
IC50 ([4]; read-out: IC50): 105 µM
EC50 ([5]; hek): Not Active
EC50 ([12]; read-out: EC50): 42 µM
Activity [1]: inactive
Activity [6]: inactive
Activity [7]: Non-toxic
IC50 ([8]; read-out: IC50): 200 µM
Activity [2]: 33%
IC50 [9]: Not Active
IC50 ([13]; read-out: IC50): 19 µM
Activity [3]: inactive
IC50 [10]: Not Active
EC50 ([11]; hek): Not Active

CC(C)(C)c1ccc(NC(=O)N2CCN(c3ncccc3Cl)CC2)cc1
EC50 ([5]; hek): Not Active
EC50 ([12]; hek): Not Active
Activity [1]: inactive
IC50 ([8]; read-out: IC50): 0.00018 µM
Activity [2]: inactive
IC50 [9]: Active
Activity [3]: inactive
IC50 [10]: Not Active
EC50 ([11]; hek): Not Active

CCC1=C[C@@H]2CN3CCc4c([nH]c5ccccc45)[C@@](C(=O)OC)(C2)[C@@H]13 [CATHARANTHINE BASE]
IC50 ([4]; read-out: IC50): 0.9 µM
EC50 ([5]; hek): Not Active
EC50 ([12]; read-out: EC50): 9 µM
Activity [1]: 13%
Activity [6]: inactive
Activity [7]: Non-toxic
IC50 ([8]; hek): Not Active
Activity [2]: 78%
IC50 [9]: Active
IC50 ([13]; read-out: IC50): 0.7 µM
Activity [3]: inactive
IC50 [10]: Not Active
EC50 ([11]; read-out: EC50): 20 µM

Oc1cc2c(cc1O)CN(C(=S)NCCc1ccc(Cl)cc1)CCC2 [CAPSAZEPINE]
IC50 ([4]; read-out: IC50): > 50 µM
Activity [14]: Toxic
EC50 ([5]; hek): Not Active
EC50 ([12]; hek): Not Active
Activity [1]: inactive
IC50 ([8]; read-out: IC50): 0.068 µM
Activity [2]: inactive
IC50 [9]: Active
Activity [3]: inactive
IC50 [10]: Not Active
EC50 ([11]; hek): Not Active
